Type in all cases: in vivo
Experiment [1] has as its system superoxide production in left ventricular homogenates (gp91^phox, RAC-1, heme oxygenase). Put plainly: Assessment of superoxide production in HF-fed mice. The text has this: Adult (8-week-old) male […] mice (Precinct Animal Centre, Melbourne, Australia) and RAGE knockout (KO) mice^17 ([…] al., J Clin Invest. 113:1641-50, 2004) were housed in a temperature-controlled room on a 12-h light-dark cycle. Mice were placed on either a standard diet (AIN-93G; Specialty feeds, Perth AUS; n=10/group) or a high fat (HF) diet formulated to mimic a “Western fast food diet”, (SF05-031, Specialty Feeds; n=10). Both diets contained the same vitamin and calorie content. […] Animals receiving a HF diet were further randomized to receive alagebrium chloride at a dose of 1 mg/kg/day delivered by oral gavage. All groups were followed for 16 weeks. The production and accumulation of superoxide and other ROS is a key mediator of […] injury and cellular dysfunction associated with high fat feeding^5 (Boudina and Abel, Circulation 115:3213-23, 2007). […] Following incubation for 60 min at 37° C., before the rate of superoxide anion formation was determined by the addition of 3.8 μM lucigenin (bis-N-methylacridinium nitrate). […] The expression of the NADPH subunits, NOX-2 (gp91^phox), p47^phox, NOX-4 and RAC-1 in left ventricular homogenates, along with the expression of heme oxygenase (HO) and glutathione peroxidase (GPX), key defence mechanism against oxidative stress, were further assessed by real-time quantitative RT-PCR, as detailed above.

The subject of experiment [2] is PPARα, CD36, intra-myocardial triacylglycerol. Put plainly: Assessment of lipid metabolism in HF-fed mice. The conditions noted are these: for Gene expression PPAR alpha: HF diet, real time RT-PCR. The text has this: Adult (8-week-old) male […] mice (Precinct Animal Centre, Melbourne, Australia) and RAGE knockout (KO) mice^17 ([…] al., J Clin Invest. 113:1641-50, 2004) were housed in a temperature-controlled room on a 12-h light-dark cycle. Mice were placed on either a standard diet (AIN-93G; Specialty feeds, Perth AUS; n=10/group) or a high fat (HF) diet formulated to mimic a “Western fast food diet”, (SF05-031, Specialty Feeds; n=10). Both diets contained the same vitamin and calorie content. […] Animals receiving a HF diet were further randomized to receive alagebrium chloride at a dose of 1 mg/kg/day delivered by oral gavage. All groups were followed for 16 weeks. Changes in myocardial energy metabolism, due to altered substrate handling, characterize obesity-related cardiac disease^5 (Boudina and Abel, Circulation 115:3213-23, 2007). In particular, intra-myocardial accumulation of triacylglycerol metabolites mediated by activation of peroxisome proliferator activated receptor α(PPARα) has been strongly associated with cardiac dysfunction in rodents fed a HF diet^20 (Ouwens et al., Diabetologia 48:1229-37, 2005). To assess the interaction of AGE/RAGE with lipotoxicity pathways in this model, the ventricular expression of PPARα and the fatty acid translocase, CD36, were assessed by real-time quantitative RT-PCR. Intra-myocardial accumulation of triacylglycerol metabolites was assessed by staining with Oil red-O in frozen cardiac sections and quantitated in cardiac homogenates extracted using the method of Bligh and Dyer and measured using a standard commercial enzymatic assay.

The test system of experiment [3] is myocardial fibrosis (collagen I, collagen IV). Put plainly: Assessment of myocardial fibrosis in HF-fed mice. The conditions noted are these: for collagen deposition / collagen accumulation associated with high fat feeding: HF-fed mice, histology (FIG. 1); for Gene expression Collagen I / Gene expression Collagen IV: HF diet, real time RT-PCR. From the text: Adult (8-week-old) male […] mice (Precinct Animal Centre, Melbourne, Australia) and RAGE knockout (KO) mice^17 ([…] al., J Clin Invest. 113:1641-50, 2004) were housed in a temperature-controlled room on a 12-h light-dark cycle. Mice were placed on either a standard diet (AIN-93G; Specialty feeds, Perth AUS; n=10/group) or a high fat (HF) diet formulated to mimic a “Western fast food diet”, (SF05-031, Specialty Feeds; n=10). Both diets contained the same vitamin and calorie content. […] Animals receiving a HF diet were further randomized to receive alagebrium chloride at a dose of 1 mg/kg/day delivered by oral gavage. All groups were followed for 16 weeks. Previous studies have shown that obesity is associated with an increase in intramyocardial fibrosis. Gene expression of markers of fibrosis, including collagens and fibronectin were assessed by real-time quantitative RT-PCR, as detailed above. Perivascular collagen deposition was assessed by Van Giesen's Stain and interstitial fibrosis was assessed by staining with Picrosirus red staining of organized collagen. […] Paraffin-fixed cardiac sections were also stained for collagen IV by immunohistochemistry, as previously described^12 (Candido et al., Circ Res. 92:785-92, 2003).
Background: Real-time PCR tracks product formation cycle by cycle.

The nature of experiment [4]: Physiological and biochemical parameters in HF-fed mice. The conditions noted are these: HF diet, 1 mg/kg/day oral gavage; for Weight gain (% baseline): 16 weeks. The text has this: Adult (8-week-old) male […] mice (Precinct Animal Centre, Melbourne, Australia) and RAGE knockout (KO) mice^17 ([…] al., J Clin Invest. 113:1641-50, 2004) were housed in a temperature-controlled room on a 12-h light-dark cycle. Mice were placed on either a standard diet (AIN-93G; Specialty feeds, Perth AUS; n=10/group) or a high fat (HF) diet formulated to mimic a “Western fast food diet”, (SF05-031, Specialty Feeds; n=10). Both diets contained the same vitamin and calorie content. […] Animals receiving a HF diet were further randomized to receive alagebrium chloride at a dose of 1 mg/kg/day delivered by oral gavage. All groups were followed for 16 weeks. The following parameters were serially measured in all groups: body weight; blood glucose, measured using a glucometer; systolic blood pressure, measured by tail-cuff plethysmography in conscious, warmed mice.

Where [5] appears, read: Wild-type mice, listed as AL, 1 mg/kg/day.

Consider `Cc1sc[n+](CC(=O)c2ccccc2)c1C.[Cl-]` [alagebrium chloride, 3-(2-phenyl-2-oxoethyl)-4,5-dimethylthiazolium chloride], for which the “Gene expression relative to 18S (AU/18s)” value in experiment [1] (RAGE KO mice, HF diet, real time RT-PCR, listed as AL) was 0.1 ± 0.1 AU/18s. Moreover, the “NADH-dependent (mitochondrial) superoxide production in cardiac homogenates” value in experiment [1] (both wild type and RAGE KO mice, HF diet (FIG. 4)) is listed as “significantly reduced”. Besides, the “intramyocardial accumulation of lipid (Oil-red O staining, cardiac triglyceride content)” value in experiment [2] (HF-fed mice (FIG. 1)) is on record as “unaffected”. Further, in experiment [2] (HF-fed mice, RT-PCR), the “Expression of the fatty acid translocase, CD36” value was “similar”. In addition, the “Gene expression PPAR alpha” value in experiment [2] (RAGE KO mice) is listed as “reduced”; in experiment [2] (RAGE KO mice, listed as AL) it was 1.2 ± 0.3 AU/18s; in experiment [2] (Wild-type mice) it was “reduced”; in experiment [2] (Wild-type mice, listed as AL) it was 1.9 ± 0.4 AU/18s. The figures for the “collagen deposition / collagen accumulation associated with high fat feeding” value in experiment [3] and in experiment [3] (listed as alegebrium chloride) were “unaffected” and “reduced”, respectively. Also, the “Gene expression Collagen I” value in experiment [3] (RAGE KO mice) amounted to 0.8 ± 0.1 AU/18s; in experiment [3] (Wild-type mice), 1.6 ± 0.1 AU/18s. Further, the “Gene expression Collagen IV” value in experiment [3] (RAGE KO mice) was found to be 0.9 ± 0.1 AU/18s; in experiment [3] (Wild-type mice), 1.3 ± 0.1 AU/18s. For the same compound, the Glucose is 13.7 ± 0.7 mmol/L in experiment [4] (RAGE KO mice); “equivalent changes” in experiment [4] (Wild-type mice, 1 mg/kg/day); 15.1 ± 0.5 mmol/L in experiment [4] (setting [5]). In addition, the “Weight gain (% baseline)” value is reported as 44 ± 7 % baseline in experiment [4] (RAGE KO mice); “reduced” in experiment [4] (Wild-type mice, 1 mg/kg/day); 27 ± 2 % baseline in experiment [4] (setting [5]).

For the origin of these results see US20090088461A1, “Methods of Treating or Preventing Cardiac Disease Associated With a High Fat Diet” (Synvista Therapeutics, Inc., priority 2007, published 2009).
